# Test results reported in article PMC8146505, “Enantioselective Interactions of Anti-Infective 8-Aminoquinoline Therapeutics with Human Monoamine Oxidases A and B” (Pharmaceuticals, 2021).
# Tests used:
# recombinant human MAO-B = target: T1, recombinant human MAO-B (Homo sapiens, UniProt P27338); test: In vitro MAO inhibition assay (kynuramine oxidative deamination), IC50; format: biochemical; details: rhMAO-B, kynuramine 50 μM, steady-state, mean ± SD
# T1 construct: purchased BD Biosciences (Bedford, MA, USA)
# T1 sequence (P27338 1-520): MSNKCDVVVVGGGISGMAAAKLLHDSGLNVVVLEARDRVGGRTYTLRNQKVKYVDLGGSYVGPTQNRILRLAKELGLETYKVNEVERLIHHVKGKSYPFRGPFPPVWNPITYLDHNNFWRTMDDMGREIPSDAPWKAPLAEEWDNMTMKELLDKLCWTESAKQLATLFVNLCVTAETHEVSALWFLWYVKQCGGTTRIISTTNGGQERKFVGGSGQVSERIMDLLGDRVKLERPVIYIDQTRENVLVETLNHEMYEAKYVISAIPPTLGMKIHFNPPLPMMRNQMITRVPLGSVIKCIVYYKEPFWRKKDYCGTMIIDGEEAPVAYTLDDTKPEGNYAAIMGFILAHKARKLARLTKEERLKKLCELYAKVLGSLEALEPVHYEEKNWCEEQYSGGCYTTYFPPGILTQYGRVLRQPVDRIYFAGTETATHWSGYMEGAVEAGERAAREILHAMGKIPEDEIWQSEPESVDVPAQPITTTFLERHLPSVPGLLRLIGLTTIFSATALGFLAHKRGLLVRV
# Method: (§1) A fixed concentration of kynuramine substrate and varying concentrations of the test compounds were used to determine the IC50 values. Kynuramine concentrations for MAO-A and -B assays were 80 μM and 50 μM, respectively. The concentrations of PQ and NPC1161 enantiomers varied from 0.1 μM to 200 μM, for the rhMAO-A and -B enzyme activity inhibition. The test compounds were dissolved in DMSO, diluted in the buffer solution just before the assay, and pre-incubated with the enzyme (MAO-A (5 μg/mL) or -B (12.5 μg/mL)) for 10 min at 37 °C. […] The enzymatic reactions were initiated by the addition of the substrate (kynuramine 80 and 50 μM, for MAO-A and -B, respectively) and incubated for 20 min at 37 °C. The enzyme reactions were terminated by the addition of 78 μL of 2N NaOH to each well. The formation of 4-hydroxyquinoline (the enzyme reaction end product) was recorded fluorometrically on a SpectraMax M5 fluorescence plate reader (Molecular Devices, Sunnyvale, CA, USA) with 320 nm excitation and 380 nm emission wavelengths, using the Soft MaxPro-6 program. The inhibition of enzyme activity was calculated in terms of product formation as a percentage of corresponding controls (enzyme–substrate reaction without inhibitors). Assay controls, to define the interference of the test compounds with the fluorescence measurements, were set up simultaneously, and the enzyme or substrate was added after stopping the reaction.
# (§2) The enzyme assays were performed at a steady-state fixed concentration of the substrate kynuramine (80 μM for MAO-A and 50 μM for MAO-B) and different concentrations of the test compounds (PQ and NPC1161 enantiomers). The dose–response enzyme-inhibition curves were generated using Microsoft® Excel (Figure 2), and the IC50 values were computed with XLfit®.
# recombinant human MAO-A = target: T2, recombinant human MAO-A (Homo sapiens, UniProt P21397); test: as above; format: biochemical; details: rhMAO-A, kynuramine 80 μM, steady-state, mean ± SD
# T2 construct: purchased BD Biosciences (Bedford, MA, USA)
# T2 sequence (P21397 1-527): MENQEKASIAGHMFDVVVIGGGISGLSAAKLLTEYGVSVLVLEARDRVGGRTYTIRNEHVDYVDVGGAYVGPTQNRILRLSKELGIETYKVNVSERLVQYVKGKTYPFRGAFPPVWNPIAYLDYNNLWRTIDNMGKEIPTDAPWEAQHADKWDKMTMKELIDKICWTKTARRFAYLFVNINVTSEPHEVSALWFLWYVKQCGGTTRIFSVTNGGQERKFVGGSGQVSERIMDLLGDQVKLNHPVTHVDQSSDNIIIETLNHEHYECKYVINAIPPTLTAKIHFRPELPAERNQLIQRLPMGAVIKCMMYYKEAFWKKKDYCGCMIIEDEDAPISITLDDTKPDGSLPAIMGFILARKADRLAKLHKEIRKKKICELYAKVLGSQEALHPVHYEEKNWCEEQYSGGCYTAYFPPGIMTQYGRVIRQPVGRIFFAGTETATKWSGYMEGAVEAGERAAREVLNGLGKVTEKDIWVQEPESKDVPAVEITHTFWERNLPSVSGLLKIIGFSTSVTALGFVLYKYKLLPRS
# Method: as §1, §2
IC50 (recombinant human MAO-B) [µM],IC50 (recombinant human MAO-A) [µM],SMILES
107 ± 1.18,,"COc1cc(NC(C)CCCN)c2ncccc2c1 (racemic) [(RS)-(±)-Primaquine, Primaquine]"
170 ± 15.3,,COc1cc(N[C@@H](C)CCCN)c2ncccc2c1 [(S)-(+)-Primaquine]
0.95 ± 0.07,2.7 ± 0.14,"COc1cc(C)c2c(Oc3cccc(C(F)(F)F)c3)c(OC)cc(NC(C)CCCN)c2n1 (stereo not drawn) [Tafenoquine, 4-N-[2,6-dimethoxy-4-methyl-5-[3-(trifluoromethyl)phenoxy]quinolin-8-yl]pentane-1,4-diamine]"
117 ± 8.82,,COc1cc(N[C@H](C)CCCN)c2ncccc2c1 [(R)-(−)-Primaquine]

SMILES,IC50 (recombinant human MAO-B) [µM],IC50 (recombinant human MAO-A) [µM]
COc1ccc2c(c1)[nH]c1c(C)nccc12 [Harmine],53.1 ± 3.91,
